ChEMBL document CHEMBL5236646, “Design, synthesis, and biological evaluation of BRD4 degraders” (Bioorg Med Chem, 2023)
The source made the active and inactive calls. No cut-off for these calls is given here.

Tests used:
[1] = test system: MV4-11; experiment: Antiproliferative activity against human […] cells assessed as inhibition of cell growth incubated for 72 hrs MTS assay; type: functional, cell-based; conditions: MV4-11, 72 h
[2] = molecular target: T1, Protein cereblon/Bromodomain-containing protein 4 (Homo sapiens) (UniProt O60885+Q96SW2); experiment: Protac activity at CRBN/BRD4 in human MM1.S cells assessed as induction of BRD4 protein degradation by measuring residual activity at 0.1 uM incubated for 3 hrs by Western blot analysis relative to control; type: cell-based
T1 sequence (Q96SW2 whole entry, looked up, other chains not shown): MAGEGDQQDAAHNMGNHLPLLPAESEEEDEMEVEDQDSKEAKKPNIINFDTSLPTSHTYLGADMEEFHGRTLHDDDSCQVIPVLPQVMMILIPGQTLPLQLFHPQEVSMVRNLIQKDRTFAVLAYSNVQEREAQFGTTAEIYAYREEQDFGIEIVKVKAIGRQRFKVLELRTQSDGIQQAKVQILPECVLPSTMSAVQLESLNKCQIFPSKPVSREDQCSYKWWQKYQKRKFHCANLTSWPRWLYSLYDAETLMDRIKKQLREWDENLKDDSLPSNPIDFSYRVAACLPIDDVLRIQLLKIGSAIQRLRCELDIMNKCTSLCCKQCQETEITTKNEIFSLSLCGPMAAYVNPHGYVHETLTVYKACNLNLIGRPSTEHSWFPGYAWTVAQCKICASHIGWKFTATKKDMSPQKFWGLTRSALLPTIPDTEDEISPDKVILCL

[3] = molecular target: T1, Protein cereblon/Bromodomain-containing protein 4 (Homo sapiens); experiment: Protac activity at CRBN/BRD4 in human MV4-11 cells assessed as induction of BRD4 protein degradation by measuring residual activity at 0.003 uM incubated for 3 hrs by Western blot analysis relative to control; type: cell-based
[4] = molecular target: T1, Protein cereblon/Bromodomain-containing protein 4 (Homo sapiens); experiment: Protac activity at CRBN/BRD4 in human MM1.S cells assessed as induction of BRD4 protein degradation by measuring residual activity at 0.03 uM incubated for 3 hrs by Western blot analysis relative to control; type: cell-based
[5] = test system: MM1.S; experiment: Antiproliferative activity against human MM1.S cells assessed as inhibition of cell growth incubated for 72 hrs MTS assay; type: functional, cell-based
[6] = molecular target: T1, Protein cereblon/Bromodomain-containing protein 4 (Homo sapiens); experiment: Protac activity at CRBN/BRD4 in human MM1.S cells assessed as induction of BRD4 protein degradation by measuring residual activity at 0.3 uM incubated for 3 hrs by Western blot analysis relative to control; type: cell-based
[7] = molecular target: T1, Protein cereblon/Bromodomain-containing protein 4 (Homo sapiens); experiment: Protac activity at CRBN/BRD4 in human MV4-11 cells assessed as induction of BRD4 protein degradation by measuring residual activity at 0.027 uM incubated for 3 hrs by Western blot analysis relative to control; type: cell-based
[8] = molecular target: T1, Protein cereblon/Bromodomain-containing protein 4 (Homo sapiens); experiment: Protac activity at CRBN/BRD4 in human MV4-11 cells assessed as induction of BRD4 protein degradation by measuring residual activity at 0.009 uM incubated for 3 hrs by Western blot analysis relative to control; type: cell-based
[9] = molecular target: T1, Protein cereblon/Bromodomain-containing protein 4 (Homo sapiens); experiment: Protac activity at CRBN/BRD4 in human MM1.S cells assessed as downregulation of MYC protein expression at […] incubated for 3 hrs by Western blot analysis; type: cell-based
[10] = molecular target: T1, Protein cereblon/Bromodomain-containing protein 4 (Homo sapiens); experiment: Protac activity at CRBN/BRD4 in human MM1.S cells assessed as induction of BRD4 protein degradation by measuring residual activity at 1 uM incubated for 3 hrs by Western blot analysis relative to control; type: cell-based
[11] = molecular target: T1, Protein cereblon/Bromodomain-containing protein 4 (Homo sapiens); experiment: Protac activity at CRBN/BRD4 in human MV4-11 cells assessed as induction of BRD4 protein degradation by measuring residual activity at 0.18 uM incubated for 3 hrs by Western blot analysis relative to control; type: cell-based
[12] = molecular target: T1, Protein cereblon/Bromodomain-containing protein 4 (Homo sapiens); experiment: Protac activity at CRBN/BRD4 in human MV4-11 cells assessed as induction of BRD4 protein degradation by measuring residual activity at 0.02 uM incubated for 3 hrs by Western blot analysis relative to control; type: cell-based
[13] = molecular target: T1, Protein cereblon/Bromodomain-containing protein 4 (Homo sapiens); experiment: Protac activity at CRBN/BRD4 in human MV4-11 cells assessed as induction of BRD4 protein degradation by measuring residual activity at 0.06 uM incubated for 3 hrs by Western blot analysis relative to control; type: cell-based
[14] = molecular target: T1, Protein cereblon/Bromodomain-containing protein 4 (Homo sapiens); experiment: Protac activity at CRBN/BRD4 in human MV4-11 cells assessed as induction of BRD4 protein degradation by measuring residual activity at 10 nM measured after 6 hrs by Western blot analysis (reference value: 100%); type: cell-based
[15] = molecular target: T1, Protein cereblon/Bromodomain-containing protein 4 (Homo sapiens); experiment: Protac activity at CRBN/BRD4 in human MM1.S cells assessed as induction of BRD4 protein degradation by measuring residual activity at 1000 nM measured after 6 hrs by Western blot analysis (reference value: 100%); type: cell-based
[16] = molecular target: T1, Protein cereblon/Bromodomain-containing protein 4 (Homo sapiens); experiment: Protac activity at CRBN/BRD4 in human MV4-11 cells assessed as induction of BRD4 protein degradation by measuring residual activity at 30 nM measured after 6 hrs by Western blot analysis (reference value: 100%); type: cell-based
[17] = molecular target: T1, Protein cereblon/Bromodomain-containing protein 4 (Homo sapiens); experiment: Protac activity at CRBN/BRD4 in human MM1.S cells assessed as induction of BRD4 protein degradation by measuring residual activity at 300 nM measured after 6 hrs by Western blot analysis (reference value: 100%); type: cell-based
[18] = molecular target: T1, Protein cereblon/Bromodomain-containing protein 4 (Homo sapiens); experiment: Protac activity at CRBN/BRD4 in human MV4-11 cells assessed as induction of BRD4 protein degradation by measuring residual activity at 0.03 uM incubated for 3 hrs by Western blot analysis relative to control; type: cell-based
[19] = molecular target: T1, Protein cereblon/Bromodomain-containing protein 4 (Homo sapiens); experiment: Protac activity at CRBN/BRD4 in human MV4-11 cells assessed as induction of BRD4 protein degradation by measuring residual activity at 100 nM measured after 6 hrs by Western blot analysis (reference value: 100%); type: cell-based
[20] = molecular target: T1, Protein cereblon/Bromodomain-containing protein 4 (Homo sapiens); experiment: Protac activity at CRBN/BRD4 in human MV4-11 cells assessed as induction of BRD4 protein degradation by measuring residual activity at 0.01 uM incubated for 3 hrs by Western blot analysis relative to control; type: cell-based
[21] = molecular target: T1, Protein cereblon/Bromodomain-containing protein 4 (Homo sapiens); experiment: Protac activity at CRBN/BRD4 in human MV4-11 cells assessed as induction of BRD4 protein degradation by measuring residual activity at 0.09 uM incubated for 3 hrs by Western blot analysis relative to control; type: cell-based
[22] = molecular target: T1, Protein cereblon/Bromodomain-containing protein 4 (Homo sapiens); experiment: Protac activity at CRBN/BRD4 in human MM1.S cells assessed as induction of BRD4 protein degradation by measuring residual activity at 100 nM measured after 6 hrs by Western blot analysis (reference value: 100%); type: cell-based
[23] = molecular target: T1, Protein cereblon/Bromodomain-containing protein 4 (Homo sapiens); experiment: Protac activity at CRBN/BRD4 in human MM1.S cells assessed as induction of BRD4 protein degradation by measuring residual activity at 0.04 uM incubated for 3 hrs by Western blot analysis relative to control; type: cell-based
[24] = molecular target: T1, Protein cereblon/Bromodomain-containing protein 4 (Homo sapiens); experiment: Protac activity at CRBN/BRD4 in human MM1.S cells assessed as induction of BRD4 protein degradation by measuring residual activity at 0.12 uM incubated for 3 hrs by Western blot analysis relative to control; type: cell-based
[25] = molecular target: T1, Protein cereblon/Bromodomain-containing protein 4 (Homo sapiens); experiment: Protac activity at CRBN/BRD4 in human MM1.S cells assessed as induction of BRD4 protein degradation by measuring residual activity at 0.36 uM incubated for 3 hrs by Western blot analysis relative to control; type: cell-based
[26] = molecular target: T1, Protein cereblon/Bromodomain-containing protein 4 (Homo sapiens); experiment: Protac activity at CRBN/BRD4 in human MM1.S cells assessed as induction of BRD4 protein degradation by measuring residual activity at 0.07 uM incubated for 3 hrs by Western blot analysis relative to control; type: cell-based
[27] = molecular target: T1, Protein cereblon/Bromodomain-containing protein 4 (Homo sapiens); experiment: Protac activity at CRBN/BRD4 in human MM1.S cells assessed as induction of BRD4 protein degradation by measuring residual activity at 0.2 uM incubated for 3 hrs by Western blot analysis relative to control; type: cell-based
[28] = molecular target: T1, Protein cereblon/Bromodomain-containing protein 4 (Homo sapiens); experiment: Protac activity at CRBN/BRD4 in human MM1.S cells assessed as induction of BRD4 protein degradation by measuring residual activity at 0.6 uM incubated for 3 hrs by Western blot analysis relative to control; type: cell-based
[29] = Inhibition of TGF-beta induced activation of human MRC5 cells assessed as residual BRD4 protein level at 0.1 uM by Western blot analysis (reference value: 96%); type: functional
[30] = Inhibition of TGF-beta induced activation of human MRC5 cells assessed as residual BRD4 protein level at 0.5 uM by Western blot analysis (reference value: 96%); type: functional
[31] = molecular target: T1, Protein cereblon/Bromodomain-containing protein 4 (Homo sapiens); experiment: Protac activity at CRBN/BRD4 in human MM1.S cells assessed as induction of BRD4 protein degradation by measuring residual activity at 0.54 uM incubated for 3 hrs by Western blot analysis relative to control; type: cell-based
[32] = molecular target: T1, Protein cereblon/Bromodomain-containing protein 4 (Homo sapiens); experiment: Protac activity at CRBN/BRD4 in human MM1.S cells assessed as induction of BRD4 protein degradation by measuring residual activity at 0.06 uM incubated for 3 hrs by Western blot analysis relative to control; type: cell-based
[33] = molecular target: T1, Protein cereblon/Bromodomain-containing protein 4 (Homo sapiens); experiment: Protac activity at CRBN/BRD4 in human MV4-11 cells assessed as induction of BRD4 protein degradation by measuring residual activity at 0.006 uM incubated for 3 hrs by Western blot analysis relative to control; type: cell-based
[34] = molecular target: T1, Protein cereblon/Bromodomain-containing protein 4 (Homo sapiens); experiment: Protac activity at CRBN/BRD4 in human MV4-11 cells assessed as induction of BRD4 protein degradation by measuring residual activity at 0.054 uM incubated for 3 hrs by Western blot analysis relative to control; type: cell-based
[35] = molecular target: T1, Protein cereblon/Bromodomain-containing protein 4 (Homo sapiens); experiment: Protac activity at CRBN/BRD4 in human MV4-11 cells assessed as induction of BRD4 protein degradation by measuring residual activity at 0.018 uM incubated for 3 hrs by Western blot analysis relative to control; type: cell-based
[36] = molecular target: T1, Protein cereblon/Bromodomain-containing protein 4 (Homo sapiens); experiment: Protac activity at CRBN/BRD4 in human MM1.S cells assessed as induction of BRD4 protein degradation by measuring residual activity at 0.18 uM incubated for 3 hrs by Western blot analysis relative to control; type: cell-based

Row | SMILES | IC50 [1] | Activity [2] | Activity [4] | IC50 [5] | Activity [6] | Activity [9] | Activity [18] | Activity [20] | Activity [21] | other results
1 | Cc1sc2c(c1C)C(c1ccc(Cl)cc1)=N[C@@H](CC(=O)NCCCCCNC(=O)c1ccc(COc3cccc4c3C(=O)N(C3CCC(=O)NC3=O)C4=O)cc1)c1nnc(C)n1-2 (some centres not stated) | 8 nM | 86% | 87% | 110 nM | 75% | inactive |  |  |  | Activity [3]: 95%; Activity [7]: 56%; Activity [8]: 96%
2 | Cc1sc2c(c1C)C(c1ccc(Cl)cc1)=N[C@@H](CC(=O)NCCNC(=O)c1ccc(COc3cccc4c3C(=O)N(C3CCC(=O)NC3=O)C4=O)cc1)c1nnc(C)n1-2 (some centres not stated) | 48 nM | 117% |  | 544 nM | 136% |  |  |  |  | Activity [10]: 123%; Activity [11]: 82%; Activity [12]: 126%; Activity [13]: 102%
3 | Cc1sc2c(c1C)C(c1ccc(Cl)cc1)=N[C@@H](CC(=O)OC(C)(C)C)c1nnc(C)n1-2 | 42 nM |  |  | 62 nM |  |  |  |  |  | 
4 | Cc1sc2c(c1C)C(c1ccc(Cl)cc1)=N[C@@H](CC(=O)NCCCCNC(=O)COc1cccc3c1C(=O)N(C1CCC(=O)NC1=O)C3=O)c1nnc(C)n1-2 (some centres not stated) | 13 nM | 87% | 109% | 141 nM | 54% | Active | 132% | 137% | 48% | Activity [14]: 21%; Activity [15]: 40%; Activity [16]: 14%; Activity [17]: 43%; Activity [19]: 0%; Activity [22]: 26%
5 | Cc1sc2c(c1C)C(c1ccc(Cl)cc1)=N[C@@H](CC(=O)NCCNC(=O)c1ccc(COc3cccc4c3CN(C3CCC(=O)NC3=O)C4=O)cc1)c1nnc(C)n1-2 (some centres not stated) | 18 nM | 92% | 99% | 182 nM | 89% |  | 141% | 141% | 120% | 
6 | Cc1sc2c(c1C)C(c1ccc(Cl)cc1)=N[C@@H](CC(=O)NCCCCC(=O)NCc1ccc(CNc3cccc4c3C(=O)N(C3CCC(=O)NC3=O)C4=O)cc1)c1nnc(C)n1-2 (some centres not stated) | 26 nM |  |  | 131 nM |  |  | 104% | 103% | 112% | Activity [23]: 121%; Activity [24]: 125%; Activity [25]: 116%
7 | Cc1sc2c(c1C)C(c1ccc(Cl)cc1)=N[C@@H](CC(=O)NCCCCNC(=O)c1ccc(COc3cccc4c3C(=O)N(C3CCC(=O)NC3=O)C4=O)cc1)c1nnc(C)n1-2 (some centres not stated) | 25 nM |  |  | 297 nM |  |  | 108% | 126% | 91% | Activity [26]: 117%; Activity [27]: 97%; Activity [28]: 87%
8 | COC(=O)c1ccc2c(c1)NC(=O)/C2=C(\Nc1ccc(N(C)C(=O)CN2CCN(C)CC2)cc1)c1ccccc1 [NINTEDANIB] |  |  |  |  |  |  |  |  |  | Activity [29]: 88%; Activity [30]: 71%
9 | Cc1sc2c(c1C)C(c1ccc(Cl)cc1)=N[C@@H](CC(=O)NCCCNC(=O)c1ccc(COc3cccc4c3C(=O)N(C3CCC(=O)NC3=O)C4=O)cc1)c1nnc(C)n1-2 (some centres not stated) | 28 nM |  |  | 302 nM |  | inactive | 66% | 89% | 78% | Activity [26]: 126%; Activity [27]: 108%; Activity [28]: 84%
10 | Cc1sc2c(c1C)C(c1ccc(Cl)cc1)=N[C@@H](CC(=O)NCCCCC(=O)NCCOc1cccc3c1C(=O)N(C1CCC(=O)NC1=O)C3=O)c1nnc(C)n1-2 (some centres not stated) | 18 nM |  |  | 163 nM |  |  |  |  |  | Activity [31]: 111%; Activity [32]: 90%; Activity [33]: 105%; Activity [34]: 117%; Activity [35]: 105%; Activity [36]: 111%
